Results taken from PubChem BioAssay (NCI).
Values joined by “and” are separate entries in the source; they are usually repeats but may differ in a detail not shown here. Equal entries are not always repeated.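 Dose response: 5 concentrations. Exposure: 48 h. Format: 96-well plates. Endpoint: linear interpolation; highest concentration if not reached. At the GI50, growth is halved. At the TGI there is no net growth.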

How the values were obtained:
Assay in all cases: inhibition of tumour cell growth, NCI panel, 48 h
HL-60(TB) leukemia = test system: HL-60(TB) leukemia
ACHN renal = test system: ACHN renal
BT-549 breast = test system: BT-549 breast
A549 NSCLC = test system: A549 NSCLC
NCI-H460 lung = test system: NCI-H460 lung
RXF 393 renal = test system: RXF 393 renal
NCI-H23 lung = test system: NCI-H23 lung
SK-MEL-2 melanoma = test system: SK-MEL-2 melanoma
LOX IMVI melanoma = test system: LOX IMVI melanoma
U251 CNS = test system: U251 CNS
CCRF-CEM leukemia = test system: CCRF-CEM leukemia
HS 578T breast = test system: HS 578T breast
UACC-257 melanoma = test system: UACC-257 melanoma
A498 renal = test system: A498 renal
IGROV1 ovarian = test system: IGROV1 ovarian
CAKI-1 renal = test system: CAKI-1 renal
TK-10 renal = test system: TK-10 renal
UACC-62 melanoma = test system: UACC-62 melanoma
T-47D breast = test system: T-47D breast
SK-OV-3 ovarian = test system: SK-OV-3 ovarian
MCF7 breast = test system: MCF7 breast
SF-268 CNS = test system: SF-268 CNS
SF-295 CNS = test system: SF-295 CNS
NCI-H522 lung = test system: NCI-H522 lung
OVCAR-5 ovarian = test system: OVCAR-5 ovarian
NCI/ADR-RES ovarian = test system: NCI/ADR-RES ovarian
MDA-MB-435 = test system: MDA-MB-435
EKVX NSCLC = test system: EKVX NSCLC
SN12C renal = test system: SN12C renal
SNB-19 CNS = test system: SNB-19 CNS
KM12 colon = test system: KM12 colon
OVCAR-4 ovarian = test system: OVCAR-4 ovarian
COLO 205 colon = test system: COLO 205 colon
M14 melanoma = test system: M14 melanoma
HT29 colon = test system: HT29 colon
SR leukemia = test system: SR leukemia
NCI-H226 lung = test system: NCI-H226 lung
SK-MEL-5 melanoma = test system: SK-MEL-5 melanoma
SK-MEL-28 melanoma = test system: SK-MEL-28 melanoma
786-0 renal = test system: 786-0 renal
SNB-75 CNS = test system: SNB-75 CNS
HOP-92 NSCLC = test system: HOP-92 NSCLC
HOP-62 NSCLC = test system: HOP-62 NSCLC
OVCAR-3 ovarian = test system: OVCAR-3 ovarian
MOLT-4 leukemia = test system: MOLT-4 leukemia
HCC-2998 colon = test system: HCC-2998 colon
HCT-116 colon = test system: HCT-116 colon
MALME-3M melanoma = test system: MALME-3M melanoma
UO-31 renal = test system: UO-31 renal
DU-145 prostate = test system: DU-145 prostate
SF-539 CNS = test system: SF-539 CNS
HCT-15 colon = test system: HCT-15 colon
SW-620 colon = test system: SW-620 colon
MDA-MB-231 breast = test system: MDA-MB-231 breast
OVCAR-8 ovarian = test system: OVCAR-8 ovarian

**Q.** What does the source list for `C=C1C[C@](OC)([C@H](O)C(=O)N[C@@H](OC)[C@@H]2C[C@@H](O)C(C)(C)[C@@H](C[C@@H](COC)OC)O2)O[C@H](C)[C@@H]1C`?
**A.** GI50 (HL-60(TB) leukemia): 4.11 nM; TGI (HL-60(TB) leukemia): > 1000 nM; GI50 (ACHN renal): 2.33 nM; TGI (ACHN renal): 11.4 nM; GI50 (BT-549 breast): 1.18 nM; TGI (BT-549 breast): 3.26 nM; GI50 (A549 NSCLC): 1.29 nM; TGI (A549 NSCLC): 5.58 nM; GI50 (NCI-H460 lung): 0.72 nM; TGI (NCI-H460 lung): 2.66 nM; GI50 (RXF 393 renal): 1.59 nM; TGI (RXF 393 renal): 4.65 nM; GI50 (NCI-H23 lung): 1.89 nM; TGI (NCI-H23 lung): 5.44 nM; GI50 (SK-MEL-2 melanoma): 2.3 nM; TGI (SK-MEL-2 melanoma): 25 nM; GI50 (LOX IMVI melanoma): 1.21 nM; TGI (LOX IMVI melanoma): 2.95 nM; GI50 (U251 CNS): 1.75 nM; TGI (U251 CNS): 7.69 nM; GI50 (CCRF-CEM leukemia): 16.8 nM; TGI (CCRF-CEM leukemia): 361 nM; GI50 (HS 578T breast): 1.36 nM; TGI (HS 578T breast): 4.1 nM; GI50 (UACC-257 melanoma): 2.11 nM; TGI (UACC-257 melanoma): 8.85 nM; GI50 (A498 renal): 1.04 nM; TGI (A498 renal): 2.88 nM; GI50 (IGROV1 ovarian): 2.95 nM; TGI (IGROV1 ovarian): 16.1 nM; GI50 (CAKI-1 renal): 1.84 nM; TGI (CAKI-1 renal): 5.44 nM; GI50 (TK-10 renal): 1.41 nM; TGI (TK-10 renal): 3.88 nM; GI50 (UACC-62 melanoma): 1.53 nM; TGI (UACC-62 melanoma): 5.24 nM; GI50 (T-47D breast): 0.814 nM; TGI (T-47D breast): 5.48 nM; GI50 (SK-OV-3 ovarian): 1.94 nM; TGI (SK-OV-3 ovarian): 7.8 nM; TGI (MCF7 breast): 1.45 nM; GI50 (SF-268 CNS): 1.95 nM; TGI (SF-268 CNS): 5.38 nM; GI50 (SF-295 CNS): 0.353 nM; TGI (SF-295 CNS): 1.81 nM; GI50 (NCI-H522 lung): 1.94 nM; TGI (NCI-H522 lung): 7.25 nM; GI50 (OVCAR-5 ovarian): 1.82 nM; TGI (OVCAR-5 ovarian): 6.89 nM; GI50 (NCI/ADR-RES ovarian): 14.1 nM and 29.7 nM; TGI (NCI/ADR-RES ovarian): 142 nM and 314 nM; GI50 (MDA-MB-435): 1.62 nM; TGI (MDA-MB-435): 5.07 nM; GI50 (EKVX NSCLC): 1.62 nM; TGI (EKVX NSCLC): 6.67 nM; GI50 (SN12C renal): 1.74 nM; TGI (SN12C renal): 6.38 nM; GI50 (SNB-19 CNS): 1.49 nM; TGI (SNB-19 CNS): 6.45 nM; GI50 (KM12 colon): 0.861 nM; TGI (KM12 colon): 3.39 nM; GI50 (OVCAR-4 ovarian): 2.27 nM; TGI (OVCAR-4 ovarian): 19.8 nM; GI50 (COLO 205 colon): 1.23 nM; TGI (COLO 205 colon): 3.42 nM; GI50 (M14 melanoma): 1.78 nM; TGI (M14 melanoma): 4.1 nM; GI50 (HT29 colon): 0.865 nM; TGI (HT29 colon): 17.7 nM; TGI (SR leukemia): > 1000 nM; GI50 (NCI-H226 lung): 2.02 nM; TGI (NCI-H226 lung): 5.82 nM; TGI (SK-MEL-5 melanoma): 0.262 nM; GI50 (SK-MEL-28 melanoma): 1.29 nM; TGI (SK-MEL-28 melanoma): 3.83 nM; GI50 (786-0 renal): 2.2 nM; TGI (786-0 renal): 11.9 nM; GI50 (SNB-75 CNS): 2.73 nM; TGI (SNB-75 CNS): 8.25 nM; GI50 (HOP-92 NSCLC): 2.86 nM; TGI (HOP-92 NSCLC): 8.89 nM; GI50 (HOP-62 NSCLC): 2.11 nM; TGI (HOP-62 NSCLC): 10.2 nM; GI50 (OVCAR-3 ovarian): 1.17 nM; TGI (OVCAR-3 ovarian): 3.68 nM; GI50 (MOLT-4 leukemia): 4.37 nM; TGI (MOLT-4 leukemia): > 1000 nM; GI50 (HCC-2998 colon): 1.01 nM; TGI (HCC-2998 colon): 2.85 nM; GI50 (HCT-116 colon): 1.68 nM; TGI (HCT-116 colon): 10.4 nM; GI50 (MALME-3M melanoma): 0.693 nM; TGI (MALME-3M melanoma): 3.43 nM; GI50 (UO-31 renal): 2.67 nM; TGI (UO-31 renal): 29.5 nM; GI50 (DU-145 prostate): 1.45 nM; TGI (DU-145 prostate): 4.96 nM; GI50 (SF-539 CNS): 0.166 nM; TGI (SF-539 CNS): 2.13 nM; GI50 (HCT-15 colon): 2.84 nM; TGI (HCT-15 colon): 24.8 nM; GI50 (SW-620 colon): 1.57 nM; TGI (SW-620 colon): 5.08 nM; GI50 (MDA-MB-231 breast): 2.86 nM; TGI (MDA-MB-231 breast): 8.37 nM; GI50 (OVCAR-8 ovarian): 3.22 nM; TGI (OVCAR-8 ovarian): 9.6 nM
